Patent US12723063B2, “GIPR-agonist compounds” (Eli Lilly and Company, priority 2019, dated 2026)
*1 amine or outer side, *2 acyl side, *3 side chain or, on linkers, in order; H or OH if unused. Where a SMILES comes first, the peptide text is derived from it. Side-chain parts run from the residue outwards. [ ]: non-standard residue; d: D form. The star is where a group is joined. C20 diacid = O=C(O)CCCCCCCCCCCCCCCCCCC(=O)*; C18 diacid = O=C(O)CCCCCCCCCCCCCCCCC(=O)*; γGlu = O=C(O)[C@H](CCC(=O)[*:2])N[*:1]; 4Pal = N[C@@H](Cc1ccncc1)C(=O)O; αMeL = CC(C)C[C@](C)(N)C(=O)O; Orn = NCCC[C@H](N)C(=O)O; AEEA = NCCOCCOCC(=O)O; Aib = CC(C)(N)C(=O)O

Assays:
human GcgR = molecular target: T1, human GcgR (Homo sapiens, UniProt P47871); experiment: [125I]-Glucagon binding, SPA with WGA beads, 0.1% bacitracin; conditions: geometric mean, read-out: hGcgR Ki
T1 construct: expressed in transfected cells; crude membranes
Method in brief: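 SPA competition binding with WGA beads on crude membranes from HEK293 cells stably expressing hGcgR. Buffer: 25 mM HEPES pH 7.4, 2.5 mM CaCl2, 1 mM MgCl2, 0.1% bacitracin, 0.003% Tween-20; 10-point 3-fold dilutions, NSB with 1 μM Gcg.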

human GIPR = molecular target: T2, human GIPR (Homo sapiens, UniProt P48546); experiment: [125I]-GIP binding, SPA with WGA beads, 0.1% bacitracin; conditions: geometric mean, read-out: hGIPR Ki
T2 construct: expressed in transfected cells; crude membranes
T2 sequence (P48546 22-466): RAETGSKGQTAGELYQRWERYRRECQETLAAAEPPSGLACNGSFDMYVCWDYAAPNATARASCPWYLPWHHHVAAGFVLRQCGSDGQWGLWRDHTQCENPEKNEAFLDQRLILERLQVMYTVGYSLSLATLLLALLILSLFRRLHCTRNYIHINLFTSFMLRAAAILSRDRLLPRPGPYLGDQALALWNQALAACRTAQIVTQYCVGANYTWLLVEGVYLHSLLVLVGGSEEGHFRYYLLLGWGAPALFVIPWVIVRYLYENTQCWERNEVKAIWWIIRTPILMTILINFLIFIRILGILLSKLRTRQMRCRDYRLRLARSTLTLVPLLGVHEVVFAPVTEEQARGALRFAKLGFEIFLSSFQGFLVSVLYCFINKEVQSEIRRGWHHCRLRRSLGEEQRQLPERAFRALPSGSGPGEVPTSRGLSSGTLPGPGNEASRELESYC
Method in brief: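 Ki values are geometric means (SEM, n independent days), derived from four-parameter nonlinear regression of IC50. Membranes came from hGIPR-expressing CHO cells.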

T1 sequence (P47871 26-477): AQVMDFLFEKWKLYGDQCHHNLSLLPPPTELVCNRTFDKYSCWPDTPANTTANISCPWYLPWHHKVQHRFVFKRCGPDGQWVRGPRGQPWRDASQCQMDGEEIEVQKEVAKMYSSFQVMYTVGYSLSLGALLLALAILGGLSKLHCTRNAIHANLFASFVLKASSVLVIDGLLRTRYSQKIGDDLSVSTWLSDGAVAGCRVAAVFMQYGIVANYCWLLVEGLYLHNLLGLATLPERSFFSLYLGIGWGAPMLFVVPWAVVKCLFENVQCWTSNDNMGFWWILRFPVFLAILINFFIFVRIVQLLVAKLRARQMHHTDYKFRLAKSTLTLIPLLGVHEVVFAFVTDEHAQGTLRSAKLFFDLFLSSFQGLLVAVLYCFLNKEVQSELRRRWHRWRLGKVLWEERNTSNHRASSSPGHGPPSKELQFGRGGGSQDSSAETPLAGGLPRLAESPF

SMILES | Ki (human GcgR) | Ki (human GIPR)
CC[C@H](C)[C@H](NC(=O)[C@H](CO)NC(=O)[C@H](Cc1ccc(O)cc1)NC(=O)[C@H](CC(=O)O)NC(=O)[C@H](CO)NC(=O)[C@@H](NC(=O)[C@H](Cc1ccccc1)NC(=O)[C@@H](NC(=O)CNC(=O)[C@H](CCC(=O)O)NC(=O)C(C)(C)NC(=O)[C@@H](N)Cc1ccc(O)cc1)[C@@H](C)O)[C@@H](C)CC)C(=O)N[C@@H](C)C(=O)N[C@@H](CC(C)C)C(=O)N[C@@H](CC(=O)O)C(=O)N[C@@H](CCCCN)C(=O)N[C@@H](CCCCNC(=O)COCCOCCNC(=O)COCCOCCNC(=O)CC[C@H](NC(=O)CCCCCCCCCCCCCCCCC(=O)O)C(=O)O)C(=O)N[C@@H](Cc1c[nH]cn1)C(=O)N[C@@H](CCC(N)=O)C(=O)NC(C)(C)C(=O)N[C@@H](CC(=O)O)C(=O)N[C@@H](Cc1ccccc1)C(=O)N[C@H](C(=O)N[C@@H](CCC(=O)O)C(=O)N[C@@H](Cc1ccncc1)C(=O)N[C@@H](CC(C)C)C(=O)N[C@@H](CC(C)C)C(=O)N[C@@H](C)C(=O)NCC(=O)NCC(=O)N1CCC[C@H]1C(=O)N[C@@H](CO)C(=O)N[C@@H](CO)C(=O)NCC(=O)N[C@@H](C)C(=O)N1CCC[C@H]1C(=O)N1CCC[C@H]1C(=O)N1CCC[C@H]1C(=O)N[C@@H](CO)C(N)=O)C(C)C [Example 21] (H-Y[Aib]EGTFISDYSIALDKK([AEEA-AEEA-γGlu-C18 diacid])HQ[Aib]DFVE[4Pal]LLAGGPSSGAPPPS-NH2) | > 1530 nM | 1.46 nM
CC[C@H](C)[C@H](NC(=O)[C@H](CO)NC(=O)[C@H](Cc1ccc(O)cc1)NC(=O)[C@H](CC(=O)O)NC(=O)[C@H](CO)NC(=O)[C@@H](NC(=O)[C@H](Cc1ccccc1)NC(=O)[C@@H](NC(=O)CNC(=O)[C@H](CCC(=O)O)NC(=O)[C@@H](C)NC(=O)[C@@H](N)Cc1ccc(O)cc1)[C@@H](C)O)[C@@H](C)CC)C(=O)N[C@@H](CC(C)C)C(=O)N[C@@H](CC(C)C)C(=O)N[C@@H](CC(=O)O)C(=O)N[C@@H](CCCCN)C(=O)N[C@@H](CCCCNC(=O)COCCOCCNC(=O)COCCOCCNC(=O)CC[C@H](NC(=O)CCCCCCCCCCCCCCCCC(=O)O)C(=O)O)C(=O)N[C@@H](C)C(=O)N[C@@H](CCC(N)=O)C(=O)NC(C)(C)C(=O)N[C@@H](CC(=O)O)C(=O)N[C@@H](Cc1ccccc1)C(=O)N[C@H](C(=O)N[C@@H](CC(N)=O)C(=O)N[C@@H](Cc1c[nH]c2ccccc12)C(=O)N[C@@H](CC(C)C)C(=O)N[C@@H](CC(C)C)C(=O)N[C@@H](C)C(=O)N[C@@H](CCC(N)=O)C(=O)NCC(=O)N1CCC[C@H]1C(=O)N[C@@H](CO)C(=O)N[C@@H](CO)C(=O)NCC(=O)N[C@@H](C)C(=O)N1CCC[C@H]1C(=O)N1CCC[C@H]1C(=O)N1CCC[C@H]1C(=O)N[C@@H](CO)C(N)=O)C(C)C [Example 2] | 379 nM | 0.0373 nM
CC[C@H](C)[C@H](NC(=O)[C@H](CCCN)NC(=O)[C@H](CC(=O)O)NC(=O)[C@H](CC(C)C)NC(=O)[C@](C)(CC(C)C)NC(=O)[C@@H](NC(=O)[C@H](CO)NC(=O)[C@H](Cc1ccc(O)cc1)NC(=O)[C@H](CC(=O)O)NC(=O)[C@H](CO)NC(=O)[C@@H](NC(=O)[C@H](Cc1ccccc1)NC(=O)[C@@H](NC(=O)CNC(=O)[C@H](CCC(=O)O)NC(=O)C(C)(C)NC(=O)[C@@H](N)Cc1ccc(O)cc1)[C@@H](C)O)[C@@H](C)CC)[C@@H](C)CC)C(=O)N[C@@H](CCCNC(=N)N)C(=O)N[C@@H](CCC(N)=O)C(=O)NC(C)(C)C(=O)N[C@@H](CC(=O)O)C(=O)N[C@@H](Cc1ccccc1)C(=O)N[C@H](C(=O)N[C@@H](CCC(=O)O)C(=O)N[C@@H](Cc1ccc(O)cc1)C(=O)N[C@@H](CCCCNC(=O)COCCOCCNC(=O)COCCOCCNC(=O)CC[C@H](NC(=O)CCCCCCCCCCCCCCCCCCC(=O)O)C(=O)O)C(=O)N[C@@H](CC(C)C)C(=O)N[C@@H](CCC(=O)O)C(=O)NCC(=O)NCC(=O)N1CCC[C@H]1C(=O)N[C@@H](CO)C(=O)N[C@@H](CO)C(=O)NCC(=O)N[C@@H](C)C(=O)N1CCC[C@H]1C(=O)N1CCC[C@H]1C(=O)N1CCC[C@H]1C(=O)N[C@@H](CO)C(N)=O)C(C)C [Example 116] (H-Y[Aib]EGTFISDYSI[αMeL]LD[Orn]IRQ[Aib]DFVEYK([AEEA-AEEA-γGlu-C20 diacid])LEGGPSSGAPPPS-NH2) | 178 nM | 0.166 nM
CC[C@H](C)[C@H](NC(=O)[C@H](CCCCN)NC(=O)[C@H](CC(=O)O)NC(=O)[C@H](CC(C)C)NC(=O)[C@H](CC(C)C)NC(=O)[C@@H](NC(=O)[C@H](CO)NC(=O)[C@H](Cc1ccc(O)cc1)NC(=O)[C@H](CC(=O)O)NC(=O)[C@H](CO)NC(=O)[C@@H](NC(=O)[C@H](Cc1ccccc1)NC(=O)[C@@H](NC(=O)CNC(=O)[C@H](CCC(=O)O)NC(=O)[C@@H](C)NC(=O)[C@@H](N)Cc1ccc(O)cc1)[C@@H](C)O)[C@@H](C)CC)[C@@H](C)CC)C(=O)N[C@@H](C)C(=O)N[C@@H](CCC(N)=O)C(=O)NC(C)(C)C(=O)N[C@@H](CC(=O)O)C(=O)N[C@@H](Cc1ccccc1)C(=O)N[C@H](C(=O)N[C@@H](CC(N)=O)C(=O)N[C@@H](Cc1c[nH]c2ccccc12)C(=O)N[C@@H](CCCCNC(=O)COCCOCCNC(=O)COCCOCCNC(=O)CC[C@H](NC(=O)CCCCCCCCCCCCCCCCC(=O)O)C(=O)O)C(=O)N[C@@H](CC(C)C)C(=O)N[C@@H](C)C(=O)N[C@@H](CCC(N)=O)C(=O)NCC(=O)N1CCC[C@H]1C(=O)N[C@@H](CO)C(=O)N[C@@H](CO)C(=O)NCC(=O)N[C@@H](C)C(=O)N1CCC[C@H]1C(=O)N1CCC[C@H]1C(=O)N1CCC[C@H]1C(=O)N[C@@H](CO)C(N)=O)C(C)C [Example 93] (H-Y[dA]EGTFISDYSILLDKIAQ[Aib]DFVNWK([AEEA-AEEA-γGlu-C18 diacid])LAQGPSSGAPPPS-NH2) | > 959 nM | 0.043 nM
CC[C@H](C)[C@H](NC(=O)[C@H](Cc1ccccc1)NC(=O)[C@@H](NC(=O)CNC(=O)[C@H](CCC(=O)O)NC(=O)C(C)(C)NC(=O)[C@@H](N)Cc1ccc(O)cc1)[C@@H](C)O)C(=O)N[C@@H](CO)C(=O)N[C@@H](CC(=O)O)C(=O)N[C@@H](Cc1ccc(O)cc1)C(=O)N[C@@H](CO)C(=O)N[C@H](C(=O)N[C@@](C)(CC(C)C)C(=O)N[C@@H](CC(C)C)C(=O)N[C@@H](CC(=O)O)C(=O)N[C@@H](CCCCN)C(=O)N[C@@H](CCCCNC(=O)COCCOCCNC(=O)COCCOCCNC(=O)CC[C@H](NC(=O)CCCCCCCCCCCCCCCCCCC(=O)O)C(=O)O)C(=O)N[C@@H](Cc1c[nH]cn1)C(=O)N[C@@H](CCC(N)=O)C(=O)NC(C)(C)C(=O)N[C@@H](CC(=O)O)C(=O)N[C@@H](Cc1ccccc1)C(=O)N[C@H](C(=O)N[C@@H](CCC(=O)O)C(=O)N[C@@H](Cc1ccncc1)C(=O)N[C@@H](CC(C)C)C(=O)N[C@@H](CC(C)C)C(=O)N[C@@H](C)C(=O)N[C@@H](C)C(=O)NCC(=O)N1CCC[C@H]1C(=O)N[C@@H](CO)C(=O)N[C@@H](CO)C(=O)NCC(=O)N[C@@H](C)C(=O)N1CCC[C@H]1C(=O)N1CCC[C@H]1C(=O)N1CCC[C@H]1C(=O)N[C@@H](CO)C(N)=O)C(C)C)[C@@H](C)CC [Example 78] | 505 nM | 0.0236 nM
CC[C@H](C)[C@H](NC(=O)[C@H](CC(C)C)NC(=O)[C@@H](NC(=O)CNC(=O)[C@H](CCC(=O)O)NC(=O)C(C)(C)NC(=O)[C@@H](N)Cc1ccc(O)cc1)[C@@H](C)O)C(=O)N[C@@H](CO)C(=O)N[C@@H](CC(=O)O)C(=O)N[C@@H](Cc1ccc(O)cc1)C(=O)N[C@@H](CO)C(=O)N[C@H](C(=O)N[C@@](C)(CC(C)C)C(=O)N[C@@H](CC(C)C)C(=O)N[C@@H](CC(=O)O)C(=O)N[C@@H](CCCCN)C(=O)N[C@@H](CCCCNC(=O)COCCOCCNC(=O)COCCOCCNC(=O)CC[C@H](NC(=O)CCCCCCCCCCCCCCCCCCC(=O)O)C(=O)O)C(=O)N[C@@H](Cc1c[nH]cn1)C(=O)N[C@@H](CCC(N)=O)C(=O)NC(C)(C)C(=O)N[C@@H](CCC(=O)O)C(=O)N[C@@H](Cc1ccccc1)C(=O)N[C@H](C(=O)N[C@@H](CCC(=O)O)C(=O)N[C@@H](Cc1ccc(O)cc1)C(=O)N[C@@H](CC(C)C)C(=O)N[C@@H](CC(C)C)C(=O)N[C@@H](CCC(=O)O)C(=O)NCC(=O)NCC(=O)N1CCC[C@H]1C(=O)N[C@@H](CO)C(=O)N[C@@H](CO)C(=O)NCC(=O)N[C@@H](C)C(=O)N1CCC[C@H]1C(=O)N1CCC[C@H]1C(=O)N1CCC[C@H]1C(=O)N[C@@H](CO)C(N)=O)C(C)C)[C@@H](C)CC [Example 73] (H-Y[Aib]EGTLISDYSI[αMeL]LDKK([AEEA-AEEA-γGlu-C20 diacid])HQ[Aib]EFVEYLLEGGPSSGAPPPS-NH2) | 292 nM | 0.036 nM
